Assay results published in ChEMBL document CHEMBL1201862, “PubChem BioAssay data set” (2004).
The source made the active and inactive calls.

Assays:
[1] = target: Intestinal-type alkaline phosphatase (Homo sapiens, UniProt P09923); experiment: human intestinal alkaline phosphatase activators, dose response, biochemical, luminescence, uHTS hits (AID 463120); format: functional
[2] = target: T1, Calpain-2 catalytic subunit (Sus scrofa, UniProt P43367); experiment: m-calpain protease blockers, concentration series – biochemical, fluorogenic peptide substrate, dose response (AID 1420); format: functional
T1 sequence (P43367 whole entry): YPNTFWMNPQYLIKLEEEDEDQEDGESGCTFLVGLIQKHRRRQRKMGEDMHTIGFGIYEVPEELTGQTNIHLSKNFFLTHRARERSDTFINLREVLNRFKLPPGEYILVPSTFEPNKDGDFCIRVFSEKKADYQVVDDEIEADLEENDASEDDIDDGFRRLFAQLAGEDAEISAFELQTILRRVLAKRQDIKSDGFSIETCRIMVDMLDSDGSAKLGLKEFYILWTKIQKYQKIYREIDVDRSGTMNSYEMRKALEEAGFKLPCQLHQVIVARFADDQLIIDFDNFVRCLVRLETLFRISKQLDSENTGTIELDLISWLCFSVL

[3] = viability of PTEN-deleted HCT116 cells – cell-based, HCT116 PTEN knockout, dose response (AID 1047); format: functional;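 further: HCT116 colon tumor cells with PTEN knocked out; cells exposed to compound for 60 hours before readout; potency for loss of cell viability measured by luminescence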
[4] = target: DNA damage-inducible transcript 3 protein (Mus musculus, UniProt P35639); format: functional, Cricetulus griseus
DNA damage-inducible transcript 3 protein, sequence (P35639 whole entry): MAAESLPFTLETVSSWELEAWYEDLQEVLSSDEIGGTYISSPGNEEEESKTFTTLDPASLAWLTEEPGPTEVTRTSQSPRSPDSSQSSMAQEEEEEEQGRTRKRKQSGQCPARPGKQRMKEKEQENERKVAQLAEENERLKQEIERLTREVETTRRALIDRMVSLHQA

[5] = Luminescence Cell-Based Dose Retest to Confirm Inhibitors of Cancer Stem Cells. [Related pubchem assays (depositor defined):AID2717, AID2721]; format: functional; details: Homo sapiens
[6] = Luminescence Cell-Based Dose Response HTS to Identify Activators of Luciferase Translation or Activity in H4 […] Cells. [Related pubchem assays: 1829 (Project Summary), 1814 (Primary HTS)]; format: functional
[7] = Luminescence Cell-Based Dose Confirmation HTS to Identify Activators of 5'UTR Stem-Loop Driven Alpha-Synuclein mRNA Translation in H4 Neuroglioblastoma Cells. [Related pubchem assays: 1829 (Project Summary), 1814 (Primary HTS)]; format: functional
H4 = experiment: Luminescence Cell-Based Dose Response HTS to Identify Activators of 5'UTR Stem-Loop Driven Prion Protein mRNA Translation in H4 Neuroglioblastoma Cells. [Related pubchem assays: 1829 (Project Summary), 1814 (Primary HTS)]; format: functional; details: Homo sapiens
[8] = viability of HCT116 lacking mutant beta-catenin – cell-based, human colon tumor, dose response (AID 1045); format: functional;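 further: HCT116 colon tumor cells with beta catenin knocked out; cells exposed to compound for 60 hours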
INS1 = experiment: INS-1E survival protection against cytokine death – cell-based, luminescence, retest, dose response (AID 449756); format: functional; details: Rattus norvegicus;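 further: cell death triggered by IL-1 beta plus TNF-alpha plus IFN-gamma mixture; protective hits raise ATP signal compared with cytokine alone wells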
Coagulation factor XII = target: T2, Coagulation factor XII (Homo sapiens, UniProt P00748); format: functional;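 further: activated factor XIIa alpha cleaving a fluorogenic AMC peptide substrate; inhibitor potency from loss of enzyme activity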
T2 sequence (P00748 whole entry): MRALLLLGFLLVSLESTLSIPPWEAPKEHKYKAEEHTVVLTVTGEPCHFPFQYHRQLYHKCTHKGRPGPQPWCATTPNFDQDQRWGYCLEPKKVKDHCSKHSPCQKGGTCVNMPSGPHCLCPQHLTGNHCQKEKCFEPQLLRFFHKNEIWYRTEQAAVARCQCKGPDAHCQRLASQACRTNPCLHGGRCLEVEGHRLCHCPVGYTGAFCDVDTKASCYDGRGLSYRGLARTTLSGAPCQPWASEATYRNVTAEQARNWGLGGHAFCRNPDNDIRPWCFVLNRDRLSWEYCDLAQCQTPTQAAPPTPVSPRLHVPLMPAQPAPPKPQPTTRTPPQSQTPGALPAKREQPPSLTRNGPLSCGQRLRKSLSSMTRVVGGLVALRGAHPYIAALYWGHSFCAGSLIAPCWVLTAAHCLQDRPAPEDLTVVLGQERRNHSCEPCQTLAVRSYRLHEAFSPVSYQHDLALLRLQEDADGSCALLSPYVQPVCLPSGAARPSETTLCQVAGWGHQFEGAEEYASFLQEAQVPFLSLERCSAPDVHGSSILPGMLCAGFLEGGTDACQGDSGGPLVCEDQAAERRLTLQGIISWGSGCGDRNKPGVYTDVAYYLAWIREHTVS

Cytochrome P450 3A4 = Cytochrome P450 3A4 (Homo sapiens, UniProt P08684);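 further: CYP3A4 tested as one member of a cytochrome P450 panel screen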
Cytochrome P450 3A4, sequence (P08684 whole entry): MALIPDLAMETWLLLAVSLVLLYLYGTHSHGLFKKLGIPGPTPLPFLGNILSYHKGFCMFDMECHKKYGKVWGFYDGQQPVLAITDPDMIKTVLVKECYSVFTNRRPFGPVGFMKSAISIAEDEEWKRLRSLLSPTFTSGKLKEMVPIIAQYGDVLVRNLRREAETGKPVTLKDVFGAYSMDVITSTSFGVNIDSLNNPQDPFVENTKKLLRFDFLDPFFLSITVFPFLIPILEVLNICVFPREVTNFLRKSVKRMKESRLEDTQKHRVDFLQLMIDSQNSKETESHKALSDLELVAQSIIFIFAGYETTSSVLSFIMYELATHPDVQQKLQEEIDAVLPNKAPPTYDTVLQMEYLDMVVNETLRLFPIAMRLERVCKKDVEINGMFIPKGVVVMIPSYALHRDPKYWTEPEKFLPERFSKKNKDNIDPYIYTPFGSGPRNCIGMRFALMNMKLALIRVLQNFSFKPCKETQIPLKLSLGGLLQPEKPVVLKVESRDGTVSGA

Cytochrome P450 2C9 = Cytochrome P450 2C9 (Homo sapiens, UniProt P11712)
Cytochrome P450 2C9, sequence (P11712 whole entry): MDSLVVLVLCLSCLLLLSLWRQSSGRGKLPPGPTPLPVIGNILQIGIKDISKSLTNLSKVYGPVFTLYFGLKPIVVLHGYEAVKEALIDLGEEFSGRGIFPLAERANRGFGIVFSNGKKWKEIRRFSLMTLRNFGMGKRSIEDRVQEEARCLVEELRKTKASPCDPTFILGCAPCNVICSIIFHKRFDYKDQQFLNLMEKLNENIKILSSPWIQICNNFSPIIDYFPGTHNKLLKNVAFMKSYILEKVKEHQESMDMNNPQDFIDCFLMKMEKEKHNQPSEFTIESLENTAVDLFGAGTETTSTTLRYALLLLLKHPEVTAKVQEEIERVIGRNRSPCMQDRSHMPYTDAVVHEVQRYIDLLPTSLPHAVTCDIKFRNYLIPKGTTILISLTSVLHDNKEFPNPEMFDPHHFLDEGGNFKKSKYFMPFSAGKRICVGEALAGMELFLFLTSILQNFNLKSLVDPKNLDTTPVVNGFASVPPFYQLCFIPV

[9] = target: G-protein coupled receptor 55 (Homo sapiens, UniProt Q9Y2T6); experiment: selective activators of receptor GPR55 – imaging, U2OS cells, beta-arrestin-GFP redistribution, primary screen (AID 1961); format: functional
G-protein coupled receptor 55, sequence (Q9Y2T6 whole entry): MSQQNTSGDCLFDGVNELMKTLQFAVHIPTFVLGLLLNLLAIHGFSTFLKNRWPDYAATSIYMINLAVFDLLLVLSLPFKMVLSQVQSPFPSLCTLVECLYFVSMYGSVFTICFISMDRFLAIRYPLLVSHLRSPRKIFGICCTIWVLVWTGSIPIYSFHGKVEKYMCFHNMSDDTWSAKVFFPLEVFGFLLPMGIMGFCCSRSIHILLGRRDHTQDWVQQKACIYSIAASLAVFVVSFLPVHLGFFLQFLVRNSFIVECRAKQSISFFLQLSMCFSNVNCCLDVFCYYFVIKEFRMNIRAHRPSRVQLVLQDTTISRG

[10] = target: T3, Heat shock factor protein 1 (Mus musculus, UniProt P38532); experiment: decrease of HSF1-responsive luciferase luminescence – cell-based, NIH3T3, dose retest, confirmation (AID 2382); format: functional;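 further: NIH3T3 fibroblasts with HSF1-driven luciferase reporter stressed by proteasome inhibitor MG132; luminescence from HSF1-driven luciferase expression after 8 hours of MG132 stress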
T3 sequence (P38532 whole entry): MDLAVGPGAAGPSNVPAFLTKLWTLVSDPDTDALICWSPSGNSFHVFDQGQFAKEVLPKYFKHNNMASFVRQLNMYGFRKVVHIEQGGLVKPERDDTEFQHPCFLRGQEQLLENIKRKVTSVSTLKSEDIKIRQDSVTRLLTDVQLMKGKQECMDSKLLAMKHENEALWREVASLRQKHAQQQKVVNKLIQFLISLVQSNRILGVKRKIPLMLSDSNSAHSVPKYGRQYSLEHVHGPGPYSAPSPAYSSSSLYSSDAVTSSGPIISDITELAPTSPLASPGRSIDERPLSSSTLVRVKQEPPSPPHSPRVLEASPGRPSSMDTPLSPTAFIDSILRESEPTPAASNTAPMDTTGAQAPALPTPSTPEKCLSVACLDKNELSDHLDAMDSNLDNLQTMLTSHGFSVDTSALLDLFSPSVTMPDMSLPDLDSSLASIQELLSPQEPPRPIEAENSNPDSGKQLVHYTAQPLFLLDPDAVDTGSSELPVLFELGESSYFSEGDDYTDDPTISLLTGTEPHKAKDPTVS

[11] = target: T4, Tyrosine-protein phosphatase non-receptor type 7 (Homo sapiens, UniProt P35236); format: functional
T4 sequence (P35236 whole entry): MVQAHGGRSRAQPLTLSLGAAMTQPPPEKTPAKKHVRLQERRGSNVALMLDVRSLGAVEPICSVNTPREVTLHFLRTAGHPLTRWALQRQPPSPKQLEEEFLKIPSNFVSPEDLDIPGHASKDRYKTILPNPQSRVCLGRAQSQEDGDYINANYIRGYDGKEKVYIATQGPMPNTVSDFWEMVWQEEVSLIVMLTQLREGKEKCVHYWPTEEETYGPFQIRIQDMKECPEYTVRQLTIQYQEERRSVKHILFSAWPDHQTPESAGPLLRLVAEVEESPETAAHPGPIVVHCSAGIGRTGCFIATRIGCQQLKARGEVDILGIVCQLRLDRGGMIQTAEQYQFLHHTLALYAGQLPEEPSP

[12] = target: T5, Tyrosine-protein phosphatase non-receptor type 22 (Homo sapiens, UniProt Q9Y2R2); format: functional
T5 sequence (Q9Y2R2 whole entry): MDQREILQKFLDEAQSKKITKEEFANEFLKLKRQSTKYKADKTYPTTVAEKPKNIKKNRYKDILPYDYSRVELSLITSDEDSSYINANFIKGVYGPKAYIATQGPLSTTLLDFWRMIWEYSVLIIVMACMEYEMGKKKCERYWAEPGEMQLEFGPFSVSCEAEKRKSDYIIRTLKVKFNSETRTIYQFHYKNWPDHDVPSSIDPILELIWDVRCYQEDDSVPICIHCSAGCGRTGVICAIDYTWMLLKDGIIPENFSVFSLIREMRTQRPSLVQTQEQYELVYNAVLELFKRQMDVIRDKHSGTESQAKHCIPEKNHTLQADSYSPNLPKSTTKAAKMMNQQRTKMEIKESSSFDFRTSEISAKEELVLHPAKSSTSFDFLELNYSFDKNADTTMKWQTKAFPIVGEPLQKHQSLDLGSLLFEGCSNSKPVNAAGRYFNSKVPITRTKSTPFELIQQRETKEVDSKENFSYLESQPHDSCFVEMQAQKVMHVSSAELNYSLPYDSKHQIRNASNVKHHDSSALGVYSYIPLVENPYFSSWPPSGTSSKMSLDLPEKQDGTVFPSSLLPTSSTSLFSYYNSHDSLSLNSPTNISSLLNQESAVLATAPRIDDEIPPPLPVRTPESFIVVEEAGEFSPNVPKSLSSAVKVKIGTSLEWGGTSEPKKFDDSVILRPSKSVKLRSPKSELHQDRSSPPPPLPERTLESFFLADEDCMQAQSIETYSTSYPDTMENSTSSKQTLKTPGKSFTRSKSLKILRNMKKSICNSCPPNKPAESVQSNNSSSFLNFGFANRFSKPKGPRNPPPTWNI

[13] = target: T5, Tyrosine-protein phosphatase non-receptor type 22; format: functional; remark: listed apart in the source
Hexokinase = Hexokinase (Trypanosoma brucei, UniProt Q38C41); experiment: Confirmation assay for inhibitors of Trypanosoma brucei hexokinase 1-Analogue-first series. [Related pubchem assays (depositor defined):AID1430, AID1632, AID2516, AID2560, AID2579, AID2600, AID449725, AID492951]; format: functional
Hexokinase, sequence (Q38C41 whole entry, the tested form may be a part): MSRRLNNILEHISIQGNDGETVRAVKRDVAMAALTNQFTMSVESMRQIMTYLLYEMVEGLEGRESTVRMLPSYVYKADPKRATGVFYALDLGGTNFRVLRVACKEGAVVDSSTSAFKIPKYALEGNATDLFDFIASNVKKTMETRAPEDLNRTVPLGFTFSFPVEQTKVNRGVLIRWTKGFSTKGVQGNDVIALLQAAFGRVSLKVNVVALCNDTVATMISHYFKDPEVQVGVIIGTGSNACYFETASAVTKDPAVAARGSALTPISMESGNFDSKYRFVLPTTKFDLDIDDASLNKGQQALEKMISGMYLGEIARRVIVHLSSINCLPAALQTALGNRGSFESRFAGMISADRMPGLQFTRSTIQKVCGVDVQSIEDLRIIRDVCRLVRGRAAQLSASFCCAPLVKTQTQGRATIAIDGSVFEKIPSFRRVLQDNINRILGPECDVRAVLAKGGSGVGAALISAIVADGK

[14] = target: T6, Nucleotide-binding oligomerization domain-containing protein 1 (Homo sapiens, UniProt Q9Y239); experiment: SAR analysis of compounds that inhibit NOD1 - Set 3. [Related pubchem assays (depositor defined):AID1566, AID1575, AID1578, AID1849, AID1852, AID2333, AID2335, AID2466]; format: functional
T6 sequence (Q9Y239 whole entry): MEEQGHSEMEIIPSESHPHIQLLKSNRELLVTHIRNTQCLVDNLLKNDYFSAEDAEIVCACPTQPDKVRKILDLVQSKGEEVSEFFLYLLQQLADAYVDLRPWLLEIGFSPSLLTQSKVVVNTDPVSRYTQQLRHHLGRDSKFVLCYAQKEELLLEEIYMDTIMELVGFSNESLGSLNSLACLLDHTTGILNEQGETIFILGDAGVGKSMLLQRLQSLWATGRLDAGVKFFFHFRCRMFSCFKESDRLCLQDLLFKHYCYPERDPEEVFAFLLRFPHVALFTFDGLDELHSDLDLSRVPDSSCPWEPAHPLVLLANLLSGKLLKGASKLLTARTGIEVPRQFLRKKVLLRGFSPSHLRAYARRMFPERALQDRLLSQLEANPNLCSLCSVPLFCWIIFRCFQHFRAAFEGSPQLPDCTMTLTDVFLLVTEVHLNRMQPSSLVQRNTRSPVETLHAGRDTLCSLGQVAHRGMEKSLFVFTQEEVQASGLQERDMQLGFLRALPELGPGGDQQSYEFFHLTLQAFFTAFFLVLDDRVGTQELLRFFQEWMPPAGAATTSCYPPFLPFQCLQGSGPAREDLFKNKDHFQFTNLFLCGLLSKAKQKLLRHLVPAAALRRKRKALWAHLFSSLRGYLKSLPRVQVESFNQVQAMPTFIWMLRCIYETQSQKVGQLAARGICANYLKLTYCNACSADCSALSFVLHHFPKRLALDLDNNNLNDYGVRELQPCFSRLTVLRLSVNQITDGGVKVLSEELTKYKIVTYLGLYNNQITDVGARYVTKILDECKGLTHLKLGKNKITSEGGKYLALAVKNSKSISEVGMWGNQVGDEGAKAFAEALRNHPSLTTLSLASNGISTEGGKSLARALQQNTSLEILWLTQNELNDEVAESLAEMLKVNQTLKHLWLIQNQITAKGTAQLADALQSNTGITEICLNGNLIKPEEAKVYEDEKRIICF

Tumor necrosis factor = Tumor necrosis factor (Homo sapiens, UniProt P01375); experiment: analog potency on TNFa NF-kB signaling – cell-based, set 3, SAR follow-up (AID 2801); format: functional
Tumor necrosis factor, sequence (P01375 whole entry, the tested form may be a part): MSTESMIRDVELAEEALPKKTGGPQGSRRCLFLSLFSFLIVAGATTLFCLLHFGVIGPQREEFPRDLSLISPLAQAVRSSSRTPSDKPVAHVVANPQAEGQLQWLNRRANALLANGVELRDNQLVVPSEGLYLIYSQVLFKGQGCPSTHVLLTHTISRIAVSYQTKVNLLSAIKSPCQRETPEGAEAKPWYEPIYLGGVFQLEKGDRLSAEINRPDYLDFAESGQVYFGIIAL

[15] = target: Nucleotide-binding oligomerization domain-containing protein 2 (Homo sapiens, UniProt Q9HC29); experiment: inhibition of MDP-driven NOD2 NF-kB reporter – cell-based, set 3, SAR follow-up (AID 2799); format: functional
Nucleotide-binding oligomerization domain-containing protein 2, sequence (Q9HC29 whole entry, the tested form may be a part): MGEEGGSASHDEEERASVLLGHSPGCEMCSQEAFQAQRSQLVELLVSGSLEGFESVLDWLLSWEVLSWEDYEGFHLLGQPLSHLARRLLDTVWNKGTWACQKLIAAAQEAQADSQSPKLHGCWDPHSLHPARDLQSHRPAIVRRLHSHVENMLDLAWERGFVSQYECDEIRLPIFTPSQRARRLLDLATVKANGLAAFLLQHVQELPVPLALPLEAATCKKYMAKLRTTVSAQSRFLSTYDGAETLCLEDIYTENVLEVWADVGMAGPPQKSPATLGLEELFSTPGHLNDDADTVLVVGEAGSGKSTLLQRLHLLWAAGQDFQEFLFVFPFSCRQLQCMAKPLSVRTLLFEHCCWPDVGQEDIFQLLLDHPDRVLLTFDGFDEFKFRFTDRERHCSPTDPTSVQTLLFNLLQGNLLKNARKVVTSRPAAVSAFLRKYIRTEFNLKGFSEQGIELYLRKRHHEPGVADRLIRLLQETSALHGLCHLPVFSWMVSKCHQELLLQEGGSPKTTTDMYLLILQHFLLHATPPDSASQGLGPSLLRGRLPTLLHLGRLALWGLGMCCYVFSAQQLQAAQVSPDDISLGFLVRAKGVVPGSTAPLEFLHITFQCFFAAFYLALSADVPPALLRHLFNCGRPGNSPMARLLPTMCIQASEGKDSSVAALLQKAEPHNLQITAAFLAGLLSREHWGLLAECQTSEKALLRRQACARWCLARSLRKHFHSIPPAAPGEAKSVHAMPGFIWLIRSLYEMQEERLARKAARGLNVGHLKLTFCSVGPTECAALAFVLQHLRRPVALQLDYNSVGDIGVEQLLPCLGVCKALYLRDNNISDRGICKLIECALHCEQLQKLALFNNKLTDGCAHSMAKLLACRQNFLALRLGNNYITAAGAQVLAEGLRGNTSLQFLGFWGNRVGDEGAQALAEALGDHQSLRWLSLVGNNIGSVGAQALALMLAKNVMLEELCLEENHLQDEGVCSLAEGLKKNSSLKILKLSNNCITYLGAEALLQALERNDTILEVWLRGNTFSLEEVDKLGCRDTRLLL

HEK293 = experiment: SAR analysis of compounds that are cytotoxic to HEK293 - Set 3. [Related pubchem assays (depositor defined):AID1575, AID1578, AID1848, AID1849, AID2001, AID2333, AID2334, AID2335, AID2337, AID2469]; format: functional, cell-based; details: Homo sapiens

Intestinal-type alkaline phosphatase, sequence (P09923 whole entry): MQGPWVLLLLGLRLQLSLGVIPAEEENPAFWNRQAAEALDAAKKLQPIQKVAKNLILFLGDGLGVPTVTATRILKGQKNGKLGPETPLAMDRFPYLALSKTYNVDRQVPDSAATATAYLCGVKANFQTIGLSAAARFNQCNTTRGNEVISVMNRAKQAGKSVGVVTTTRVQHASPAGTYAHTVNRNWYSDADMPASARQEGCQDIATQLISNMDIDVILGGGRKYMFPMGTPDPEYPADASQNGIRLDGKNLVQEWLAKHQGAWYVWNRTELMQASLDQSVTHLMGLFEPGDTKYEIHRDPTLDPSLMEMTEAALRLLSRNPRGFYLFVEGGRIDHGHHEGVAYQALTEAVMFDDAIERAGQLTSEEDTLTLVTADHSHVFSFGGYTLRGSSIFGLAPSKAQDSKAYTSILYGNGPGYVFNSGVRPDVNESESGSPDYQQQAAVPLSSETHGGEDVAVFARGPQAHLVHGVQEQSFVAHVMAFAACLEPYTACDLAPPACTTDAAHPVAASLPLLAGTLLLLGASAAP

Q: Which results are given for `Cc1cc2cc3c(cc2nc1SCC(=O)Nc1nc(C)c(C)s1)OCO3`?
A: EC50 [1]: 25 µM (active); IC50 [2]: 24.1 µM (not active)

Q: What does the source list for `C=C(C(=O)c1ccccc1)C(C)C(=C)C(=O)c1ccccc1`?
A: EC50 [3]: 1.65 µM (active); Absolute IC50 (CHOP) [4]: 10 µM; AC50 [5]: 2.33 µM (active); EC50 [6]: > 120 µM (not active); EC50 [7]: 7.98 µM (active); EC50 (H4): > 120 µM (not active); EC50 [8]: 1.14 µM (active); AC50 (INS1): 7.97 µM (active)

Q: For `Cc1ccccc1NC(=O)c1cccc2nc3ccccc3nc12`, which EC50 [3] is on record?
A: Its EC50 is 23.8 µM (active).

Q: What about the IC50 (Coagulation factor XII) of the same compound?
A: Its IC50 is > 50 µM (inactive).

Q: What about the AC50 (Cytochrome P450 3A4) of the same compound?
A: Its AC50 is “inconclusive”.

Q: And the AC50 (Cytochrome P450 2C9)?
A: The AC50 was 8.91 µM (inconclusive).

Q: What about the EC50 [8] of the same compound?
A: Its EC50 is 21.9 µM (active).

Q: For `COc1ccc(F)cc1C(=O)C1CCCN(Cc2cccn2-c2ccccn2)C1` (stereo unspecified), which EC50 [9] is on record?
A: The EC50 was 8.93 µM (active).

Q: What about the EC50 [10] of the same compound?
A: The EC50 was > 195 µM (not active).

Q: For `COc1ccc(C2C(C(C)=O)=C(O)C(=O)N2c2nccs2)cc1OC` (stereo unspecified), which IC50 (Coagulation factor XII) is on record?
A: Its IC50 is > 50 µM (inactive).

Q: Which IC50 [11] does the source give for `Cc1nn(Cc2cccc(C(=O)NC34CC5CC(CC(C5)C3)C4)c2)c(C)c1Br` here?
A: The IC50 was > 79.4 µM (inactive).

Q: What about the IC50 [12] of the same compound?
A: Its IC50 is > 79.4 µM (inactive).

Q: And the IC50 [13]?
A: Its IC50 is > 79.4 µM (inactive).

Q: For `COc1ccc(NC(=O)c2ccc(Cl)cc2C(=O)O)cc1`, which IC50 (Hexokinase) is on record?
A: Its IC50 is > 25 µM (inactive).

Q: With `Nc1nc2ccccc2n1S(=O)(=O)c1cccc2ccccc12` as the compound, how does the IC50 [14] read?
A: The IC50 was > 20 µM (inactive).

Q: What about the IC50 (Tumor necrosis factor) of the same compound?
A: The IC50 was > 20 µM (inactive).

Q: And the IC50 [15]?
A: The IC50 was > 20 µM (inactive).

Q: What about the IC50 (HEK293) of the same compound?
A: Its IC50 is > 20 µM (inactive).
